Reference: patent US6914045B2, “Glycopeptide antibiotics” (Wyeth Holdings Corporation, priority 2001, dated 2005)
Values after ≈ are worked out from the molar mass of the structure shown.

Experiments:
Assay in all cases: in vitro antibacterial evaluation, MIC by broth dilution
Type in all cases: cell-based
Enterococcus sp. = conditions: broth dilution, 18 hours at 35° C.
Summary of the method: (§1)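 Broth dilution per NCCLS M7-A2 in Mueller-Hinton II medium, inoculum 5×10^5 CFU/mL, antibiotic range 64-0.06 μg/mL. MIC taken as lowest concentration inhibiting growth; Gram-positive panel includes recent clinical isolates resistant to methicillin, penicillin and/or vancomycin.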

Escherichia coli = tested on: Escherichia coli
Summary of the method: as §1

Staphylococcus sp. = conditions: broth dilution, 18 hours at 35° C.; for MIC Staphylococcus aureus (GC 1131): strain GC 1131
Summary of the method: as §1

Streptococcus sp. = conditions: broth dilution, 18 hours at 35° C.
Summary of the method: as §1

CCOc1cc(C2OCC3OC(OC4C(CO)OC(Oc5ccc(CC6NC(=O)C(C(C)c7ccccc7)NC(=O)CNC(=O)C(CO)NC(=O)C(C(O)C7CNC(=N)N7C7OC(CO)C(O)C(O)C7O)NC(=O)C(C(O)C7CNC(=N)N7)NC6=O)cc5)C(O)C4O)C(O)C(O)C3O2)ccc1OC (stereo not drawn) [Example 152]
MIC Enterococcus avium (GC 4558) (Enterococcus sp.; Enterococcus avium (GC 4558)): 32 µg/mL (≈ 22 µM)
MIC Enterococcus faecalis (ATCC 29212) (Enterococcus sp.; Enterococcus faecalis (ATCC 29212)): 32 µg/mL (≈ 22 µM)
MIC Enterococcus faecalis (GC 2242) (Enterococcus sp.; Enterococcus faecalis (GC 2242)): 32 µg/mL (≈ 22 µM)
MIC Enterococcus faecalis (GC 2691) (Enterococcus sp.; Enterococcus faecalis (GC 2691)): 32 µg/mL (≈ 22 µM)
MIC Enterococcus faecalis (GC 3059) (Enterococcus sp.; Enterococcus faecalis (GC 3059)): 32 µg/mL (≈ 22 µM)
MIC Enterococcus faecalis (GC 4552) (Enterococcus sp.; Enterococcus faecalis (GC 4552)): 32 µg/mL (≈ 22 µM)
MIC Enterococcus faecalis (GC 4553) (Enterococcus sp.; Enterococcus faecalis (GC 4553)): 64 µg/mL (≈ 43.9 µM)
MIC Enterococcus faecalis (GC 4554) (Enterococcus sp.; Enterococcus faecalis (GC 4554)): 32 µg/mL (≈ 22 µM)
MIC Enterococcus faecalis (GC 6189) (Enterococcus sp.; Enterococcus faecalis (GC 6189)): 32 µg/mL (≈ 22 µM)
MIC Enterococcus faecium (GC 2243) (Enterococcus sp.; Enterococcus faecium (GC 2243)): 32 µg/mL (≈ 22 µM)
MIC Enterococcus faecium (GC 4556) (Enterococcus sp.; Enterococcus faecium (GC 4556)): 32 µg/mL (≈ 22 µM)
MIC Enterococcus faecium (GC 4557) (Enterococcus sp.; Enterococcus faecium (GC 4557)): 16 µg/mL (≈ 11 µM)
MIC Enterococcus faecalis (ATCC 29212) (Enterococcus sp.; strain ATCC 29212): 32 µg/mL (≈ 22 µM)
MIC Enterococcus faecalis (GC 2242) (Enterococcus sp.; strain GC 2242): 32 µg/mL (≈ 22 µM)
MIC Enterococcus faecium (GC 2243) (Enterococcus sp.; strain GC 2243): 32 µg/mL (≈ 22 µM)
MIC Enterococcus faecalis (GC 2691) (Enterococcus sp.; strain GC 2691): 32 µg/mL (≈ 22 µM)
MIC Enterococcus faecalis (GC 3059) (Enterococcus sp.; strain GC 3059): 32 µg/mL (≈ 22 µM)
MIC Enterococcus faecalis (GC 4552) (Enterococcus sp.; strain GC 4552): 32 µg/mL (≈ 22 µM)
MIC Enterococcus faecalis (GC 4553) (Enterococcus sp.; strain GC 4553): 64 µg/mL (≈ 43.9 µM)
MIC Enterococcus faecalis (GC 4554) (Enterococcus sp.; strain GC 4554): 32 µg/mL (≈ 22 µM)
MIC Enterococcus faecium (GC 4556) (Enterococcus sp.; strain GC 4556): 32 µg/mL (≈ 22 µM)
MIC Enterococcus faecium (GC 4557) (Enterococcus sp.; strain GC 4557): 16 µg/mL (≈ 11 µM)
MIC Enterococcus avium (GC 4558) (Enterococcus sp.; strain GC 4558): 32 µg/mL (≈ 22 µM)
MIC Enterococcus faecalis (GC 6189) (Enterococcus sp.; strain GC 6189): 32 µg/mL (≈ 22 µM)
MIC Escherichia coli (ATCC 25922) (Escherichia coli; strain ATCC 25922, 18 hours at 35° C.): >64 µg/mL
MIC Escherichia coli (GC 4559) (Escherichia coli; strain GC 4559, 18 hours at 35° C.): >64 µg/mL
MIC Escherichia coli (GC 4560) (Escherichia coli; strain GC 4560, 18 hours at 35° C.): 8 µg/mL (≈ 5.49 µM)
MIC Staphylococcus aureus (GC 1131) (Staphylococcus sp.; inoculum 5×10^5 CFU/mL): 16 µg/mL (≈ 11 µM)
MIC Staphylococcus aureus (ATCC 29213) (Staphylococcus sp.; strain ATCC 29213): 16 µg/mL (≈ 11 µM)
MIC Staphylococcus aureus (GC 1131) (Staphylococcus sp.): 16 µg/mL (≈ 11 µM)
MIC Staphylococcus aureus (GC 3051) (Staphylococcus sp.; strain GC 3051): 16 µg/mL (≈ 11 µM)
MIC Staphylococcus aureus (GC 3053) (Staphylococcus sp.; strain GC 3053): 32 µg/mL (≈ 22 µM)
MIC Staphylococcus aureus (GC 4541) (Staphylococcus sp.; strain GC 4541): 16 µg/mL (≈ 11 µM)
MIC Staphylococcus aureus (GC 4542) (Staphylococcus sp.; strain GC 4542): 16 µg/mL (≈ 11 µM)
MIC Staphylococcus aureus-SMITH (GC 4543) (Staphylococcus sp.; strain GC 4543): 8 µg/mL (≈ 5.49 µM)
MIC Staphylococcus aureus (GC 4544) (Staphylococcus sp.; strain GC 4544): 16 µg/mL (≈ 11 µM)
MIC Staphylococcus aureus (GC 4545) (Staphylococcus sp.; strain GC 4545): 8 µg/mL (≈ 5.49 µM)
MIC Staphylococcus haemolyticus (GC 4546) (Staphylococcus sp.; strain GC 4546): 8 µg/mL (≈ 5.49 µM)
MIC Coagulase Negative Staphylococcus (GC 4547) (Staphylococcus sp.; strain GC 4547): 8 µg/mL (≈ 5.49 µM)
MIC Coagulase Negative Staphylococcus (GC 4548) (Staphylococcus sp.; strain GC 4548): 8 µg/mL (≈ 5.49 µM)
MIC Coagulase Negative Staphylococcus (GC 4549) (Staphylococcus sp.; strain GC 4549): 8 µg/mL (≈ 5.49 µM)
MIC Coagulase Negative Staphylococcus (GC 4551) (Staphylococcus sp.; strain GC 4551): 16 µg/mL (≈ 11 µM)
MIC Coagulase Negative Staphylococcus (GC 6257) (Staphylococcus sp.; strain GC 6257): 8 µg/mL (≈ 5.49 µM)
MIC Staphylococcus aureus-SMITH (GC 4543) (Staphylococcus sp.; strain SMITH GC 4543): 8 µg/mL (≈ 5.49 µM)
MIC Streptococcus agalactiae (GC 4564) (Streptococcus sp.; Streptococcus agalactiae (GC 4564)): 8 µg/mL (≈ 5.49 µM)
MIC Streptococcus pneumoniae (ATCC 6301) (Streptococcus sp.; Streptococcus pneumoniae (ATCC 6301)): 2 µg/mL (≈ 1.37 µM)
MIC Streptococcus pneumoniae (GC 1894) (Streptococcus sp.; Streptococcus pneumoniae (GC 1894)): 0.5 µg/mL (≈ 0.343 µM)
MIC Streptococcus pneumoniae (GC 4565) (Streptococcus sp.; Streptococcus pneumoniae (GC 4565)): 2 µg/mL (≈ 1.37 µM)
MIC Streptococcus pyogenes (GC 4563) (Streptococcus sp.; Streptococcus pyogenes (GC 4563)): 4 µg/mL (≈ 2.74 µM)
MIC Streptococcus pneumoniae (ATCC 6301) (Streptococcus sp.; strain ATCC 6301): 2 µg/mL (≈ 1.37 µM)
MIC Streptococcus pneumoniae (GC 1894) (Streptococcus sp.; strain GC 1894): 0.5 µg/mL (≈ 0.343 µM)
MIC Streptococcus pyogenes (GC 4563) (Streptococcus sp.; strain GC 4563): 4 µg/mL (≈ 2.74 µM)
MIC Streptococcus agalactiae (GC 4564) (Streptococcus sp.; strain GC 4564): 8 µg/mL (≈ 5.49 µM)
MIC Streptococcus pneumoniae (GC 4565) (Streptococcus sp.; strain GC 4565): 2 µg/mL (≈ 1.37 µM)
